Measurements as given in PubChem BioAssay AID248 (DTP/NCI, 2004).
Where “and” joins values, the source holds several entries; their conditions need not be identical. Equal entries are not always repeated. Inconclusive results and toxic doses are left out. Rule as the data show it: active = T/C of 150% or more; inactive = T/C below 125%.

System: L1210 leukemia ip in BDF1 mice, survival T/C
Test: NCI In Vivo Anticancer Drug Screen. Data for tumor model L1210 Leukemia (intraperitoneal) in B6D2F1 (BDF1) mice
Settings: endpoint: mean survival time, higher = longer survival
Outline: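 Transplantable tumor model; survival measured in treated vs vehicle control mice. Value = treated/control.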

[1] = dose: 100.0 mg/kg/injection, schedule: Q01DX009 (ip), vehicle: Klucel (hydroxypropylcellulose) (HPC)
[2] = dose: 100.0 mg/kg/injection, schedule: Q04DX003 (ip), vehicle: Klucel (hydroxypropylcellulose) (HPC)
[3] = dose: 200.0 mg/kg/injection, schedule: Q01DX009 (ip), vehicle: Klucel (hydroxypropylcellulose) (HPC)
[4] = dose: 200.0 mg/kg/injection, schedule: Q04DX003 (ip), vehicle: Klucel (hydroxypropylcellulose) (HPC)
[5] = dose: 400.0 mg/kg/injection, schedule: Q01DX009 (ip), vehicle: Klucel (hydroxypropylcellulose) (HPC)
[6] = dose: 400.0 mg/kg/injection, schedule: Q04DX003 (ip), vehicle: Klucel (hydroxypropylcellulose) (HPC)
[7] = dose: 100.0 mg/kg/injection, schedule: Q04DX002 (ip), vehicle: Klucel (hydroxypropylcellulose) (HPC)
[8] = dose: 200.0 mg/kg/injection, schedule: Q04DX002 (ip), vehicle: Klucel (hydroxypropylcellulose) (HPC)
[9] = dose: 100.0 mg/kg/injection, schedule: Q04DX002 (ip), vehicle: saline with Tween-80
[10] = dose: 100.0 mg/kg/injection, schedule: Q01DX001 (ip), vehicle: saline
[11] = dose: 200.0 mg/kg/injection, schedule: Q01DX001 (ip), vehicle: saline
[12] = dose: 400.0 mg/kg/injection, schedule: Q01DX001 (ip), vehicle: saline

Measured: T/C

CN(C)C(N)=O
inactive: dose: 75.0 mg/kg/injection, schedule: Q01DX009 (ip), vehicle: saline 102 % of control | dose: 150.0 mg/kg/injection, schedule: Q01DX009 (ip), vehicle: saline 98 % of control | dose: 300.0 mg/kg/injection, schedule: Q01DX009 (ip), vehicle: saline 100 % of control

CCOC(=O)C(C(=O)Nc1ccccc1)C(=O)OCC
inactive: [1] 99 % of control | [2] 90 % of control | [3] 100 % of control | [4] 93 % of control | [5] 105 % of control | [6] 98 % of control

COC(=O)c1cc(OC)c(OC)c(OC)c1
inactive: dose: 100.0 mg/kg/injection, schedule: Q01DX001 (ip), vehicle: saline with Tween-80 100 % of control | dose: 200.0 mg/kg/injection, schedule: Q01DX001 (ip), vehicle: saline with Tween-80 98 % of control | dose: 400.0 mg/kg/injection, schedule: Q01DX001 (ip), vehicle: saline with Tween-80 96 % of control

CCCCCCCC(N)CC(=O)O (stereo not given)
inactive: [1] 105 % of control | [3] 97 % of control | [5] 107 % of control

CC1C(N2CCCCC2)N(C(=O)c2ccccc2)SC12c1ccccc1-c1ccccc12 (stereo not given)
inactive: [7] 94 % of control | [8] 102 % of control | dose: 400.0 mg/kg/injection, schedule: Q04DX002 (ip), vehicle: Klucel (hydroxypropylcellulose) (HPC) 102 % of control

Cc1ccc(C(=O)/C=C/c2ccc(Cl)c(Cl)c2)c(C)c1
inactive: dose: 100.0 mg/kg/injection, schedule: Q01DX009 (ip), vehicle: saline with Tween-80 92 % of control | [9] 98 % of control | dose: 200.0 mg/kg/injection, schedule: Q01DX009 (ip), vehicle: saline with Tween-80 95 % of control | dose: 200.0 mg/kg/injection, schedule: Q04DX002 (ip), vehicle: saline with Tween-80 91 % of control | dose: 400.0 mg/kg/injection, schedule: Q01DX009 (ip), vehicle: saline with Tween-80 109 % of control | dose: 400.0 mg/kg/injection, schedule: Q04DX002 (ip), vehicle: saline with Tween-80 91 % of control

[Cl][Sn]([Cl])([c]1ccccc1)[c]1ccccc1
inactive: dose: 12.5 mg/kg/injection, schedule: Q01DX001 (ip), vehicle: saline 108 % of control | dose: 25.0 mg/kg/injection, schedule: Q01DX001 (ip), vehicle: saline 96 % of control | dose: 50.0 mg/kg/injection, schedule: Q01DX001 (ip), vehicle: saline 100 % of control

NC(=O)C1CC=CCC1C(=O)O (stereo not given)
inactive: dose: 100.0 mg/kg/injection, schedule: Q01DX009 (ip), vehicle: other 88 % of control | dose: 200.0 mg/kg/injection, schedule: Q01DX009 (ip), vehicle: other 100 % of control | dose: 400.0 mg/kg/injection, schedule: Q01DX009 (ip), vehicle: other 92 % of control

c1ccc2c(c1)CCCN2
inactive: [10] 99 % of control | [11] 89 % of control | [12] 89 % of control

O=C1C(c2ccccc2)CN1CC1CCCCC1 (stereo not given)
inactive: dose: 100.0 mg/kg/injection, schedule: Q01DX001 (ip), vehicle: Klucel (hydroxypropylcellulose) (HPC) 98 % of control | dose: 200.0 mg/kg/injection, schedule: Q01DX001 (ip), vehicle: Klucel (hydroxypropylcellulose) (HPC) 101 % of control | dose: 400.0 mg/kg/injection, schedule: Q01DX001 (ip), vehicle: Klucel (hydroxypropylcellulose) (HPC) 95 % of control

Cc1cc(C)n(/N=C/c2ccccc2[N+](=O)[O-])c(=O)c1C#N
inactive: [1] 91 % of control | [2] 102 % of control | [3] 92 % of control | [4] 93 % of control | [5] 92 % of control | [6] 96 % of control

O=C([O-])c1ccccc1[S+](c1ccccc1)c1ccccc1
inactive: dose: 18.0 mg/kg/injection, schedule: Q04DX002 (ip), vehicle: saline with Tween-80 104 % of control

NNC(=O)CNc1ccccc1Cl
inactive: [7] 112 % of control | [8] 108 % of control

Cc1ccc(S(=O)(=O)Oc2ccc(I)cc2)cc1
inactive: [1] 107 % of control | [2] 100 % of control | [3] 98 % of control | [4] 105 % of control | [5] 103 % of control | [6] 97 % of control

CCC(CCl)NC1CCCCC1 (stereo not given)
inactive: dose: 75.0 mg/kg/injection, schedule: Q01DX001 (ip), vehicle: saline 106 % of control | dose: 150.0 mg/kg/injection, schedule: Q01DX001 (ip), vehicle: saline 106 % of control

CCCCOP(=O)(OCCCC)c1ccccc1OC
inactive: dose: 25.0 mg/kg/injection, schedule: Q04DX002 (ip), vehicle: saline with Tween-80 99 % of control | dose: 50.0 mg/kg/injection, schedule: Q04DX002 (ip), vehicle: saline with Tween-80 99 % of control | [9] 96 % of control and 89 % of control

CN(C)CCCCc1cn(-c2ccccc2)c2ccccc12
inactive: dose: 12.5 mg/kg/injection, schedule: Q01DX009 (ip), vehicle: saline 100 % of control | dose: 25.0 mg/kg/injection, schedule: Q01DX009 (ip), vehicle: saline 93 % of control | dose: 25.0 mg/kg/injection, schedule: Q04DX003 (ip), vehicle: saline 102 % of control | dose: 30.0 mg/kg/injection, schedule: Q01DX015 (ip), vehicle: saline 86 % of control | dose: 50.0 mg/kg/injection, schedule: Q01DX009 (ip), vehicle: saline 107 % of control | dose: 50.0 mg/kg/injection, schedule: Q04DX003 (ip), vehicle: saline 103 % of control

ClC(c1ccccc1)C1(Br)C=c2ccccc2=C1 (stereo not given)
inactive: [1] 97 % of control | [3] 97 % of control | [4] 105 % of control and 91 % of control | [6] 94 % of control and 103 % of control

OC1CNCCc2ccccc21 (stereo not given)
inactive: dose: 25.0 mg/kg/injection, schedule: Q01DX009 (ip), vehicle: Klucel (hydroxypropylcellulose) (HPC) 102 % of control | dose: 50.0 mg/kg/injection, schedule: Q01DX009 (ip), vehicle: Klucel (hydroxypropylcellulose) (HPC) 103 % of control | [1] 94 % of control | [2] 92 % of control | [4] 88 % of control

O=C(C1C(c2ccccc2)C1c1ccccc1)N(CCCl)Cc1ccccc1 (stereo not given)
inactive: dose: 25.0 mg/kg/injection, schedule: Q04DX002 (ip), vehicle: Klucel (hydroxypropylcellulose) (HPC) 97 % of control | dose: 50.0 mg/kg/injection, schedule: Q04DX002 (ip), vehicle: Klucel (hydroxypropylcellulose) (HPC) 87 % of control | [7] 100 % of control

COc1cc(C(=O)NC(=S)NCc2ccncc2)cc(OC)c1OC
inactive: [7] 96 % of control | [8] 88 % of control

O=C(O)CCC(=O)Nc1ccc(Cl)cc1
inactive: dose: 100.0 mg/kg/injection, schedule: Q04DX003 (ip), vehicle: saline with Tween-80 97 % of control | dose: 200.0 mg/kg/injection, schedule: Q04DX003 (ip), vehicle: saline with Tween-80 94 % of control | dose: 400.0 mg/kg/injection, schedule: Q04DX003 (ip), vehicle: saline with Tween-80 86 % of control

CC(=O)c1cccc([N+](=O)[O-])c1O
inactive: [10] 95 % of control | [11] 94 % of control | [12] 91 % of control

O=C(O)c1ccc(F)c([N+](=O)[O-])c1
inactive: dose: 100.0 mg/kg/injection, schedule: Q04DX002 (ip), vehicle: saline 102 % of control | dose: 200.0 mg/kg/injection, schedule: Q04DX002 (ip), vehicle: saline 113 % of control | dose: 400.0 mg/kg/injection, schedule: Q04DX002 (ip), vehicle: saline 107 % of control
